One test addresses T1, Mer (Homo sapiens, UniProt Q12866).
T1 construct: purchased Life Technologies
T1 sequence (Q12866 21-999): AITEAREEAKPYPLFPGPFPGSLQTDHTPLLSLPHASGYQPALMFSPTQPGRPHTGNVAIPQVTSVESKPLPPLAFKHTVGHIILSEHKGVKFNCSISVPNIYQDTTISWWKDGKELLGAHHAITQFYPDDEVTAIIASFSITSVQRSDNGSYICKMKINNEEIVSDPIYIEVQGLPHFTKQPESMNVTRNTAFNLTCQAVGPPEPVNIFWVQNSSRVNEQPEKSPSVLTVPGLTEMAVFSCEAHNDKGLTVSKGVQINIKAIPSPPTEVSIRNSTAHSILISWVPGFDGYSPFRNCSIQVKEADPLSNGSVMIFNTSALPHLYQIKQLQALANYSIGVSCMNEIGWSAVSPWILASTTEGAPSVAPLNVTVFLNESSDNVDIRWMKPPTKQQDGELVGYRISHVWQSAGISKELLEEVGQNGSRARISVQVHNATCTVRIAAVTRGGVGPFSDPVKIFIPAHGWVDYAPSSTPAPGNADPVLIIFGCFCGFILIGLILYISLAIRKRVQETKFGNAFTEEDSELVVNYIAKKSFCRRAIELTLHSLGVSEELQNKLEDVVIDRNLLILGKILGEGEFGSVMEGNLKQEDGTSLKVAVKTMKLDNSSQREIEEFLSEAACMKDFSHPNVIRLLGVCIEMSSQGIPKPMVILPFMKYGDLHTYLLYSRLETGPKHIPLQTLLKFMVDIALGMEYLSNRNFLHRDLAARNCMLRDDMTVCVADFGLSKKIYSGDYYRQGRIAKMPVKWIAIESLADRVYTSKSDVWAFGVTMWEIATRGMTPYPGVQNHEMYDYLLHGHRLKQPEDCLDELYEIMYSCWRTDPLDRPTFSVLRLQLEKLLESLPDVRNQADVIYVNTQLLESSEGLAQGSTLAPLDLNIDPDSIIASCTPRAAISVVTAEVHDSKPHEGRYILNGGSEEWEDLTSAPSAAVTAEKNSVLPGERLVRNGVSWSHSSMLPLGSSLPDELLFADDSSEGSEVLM
As to the kind of experiment: LanthaScreen Eu kinase binding assay, Mer. Particulars: Tracer 236. A general note: In TR-FRET formats the signal depends on donor and acceptor labels being close together.

Another test deals with T2, Met (Homo sapiens, UniProt P08581).
T2 construct: purchased Life Technologies
As to the kind of experiment: LanthaScreen Eu kinase binding assay, Met. Particulars: Tracer 236, read-out: cMet kinase binding activity (Kd).

Test [1] has as its system Axl phosphorylation in transiently transfected HEK293T cells. Put plainly: Cellular Axl phosphorylation assay. The class given is cell-based. Particulars: Homo sapiens, HEK-293T; HEK293T cells transfected with Axl, 1 hour compound treatment, Phospho-Axl vs Total-Axl. An outline of the steps:
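HEK293T cells transiently transfected with Axl (empty pcDNA_DEST_40 vector as minimum control) were treated with compound in DMSO for 1 h, then lysed. Total and phospho-Axl in lysates were measured by Mesoscale electrochemiluminescence immunoassay. IC50 was taken relative to the DMSO vehicle and empty-vector controls.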

The structures appear in SMILES notation.

T2 sequence (P08581 25-1390): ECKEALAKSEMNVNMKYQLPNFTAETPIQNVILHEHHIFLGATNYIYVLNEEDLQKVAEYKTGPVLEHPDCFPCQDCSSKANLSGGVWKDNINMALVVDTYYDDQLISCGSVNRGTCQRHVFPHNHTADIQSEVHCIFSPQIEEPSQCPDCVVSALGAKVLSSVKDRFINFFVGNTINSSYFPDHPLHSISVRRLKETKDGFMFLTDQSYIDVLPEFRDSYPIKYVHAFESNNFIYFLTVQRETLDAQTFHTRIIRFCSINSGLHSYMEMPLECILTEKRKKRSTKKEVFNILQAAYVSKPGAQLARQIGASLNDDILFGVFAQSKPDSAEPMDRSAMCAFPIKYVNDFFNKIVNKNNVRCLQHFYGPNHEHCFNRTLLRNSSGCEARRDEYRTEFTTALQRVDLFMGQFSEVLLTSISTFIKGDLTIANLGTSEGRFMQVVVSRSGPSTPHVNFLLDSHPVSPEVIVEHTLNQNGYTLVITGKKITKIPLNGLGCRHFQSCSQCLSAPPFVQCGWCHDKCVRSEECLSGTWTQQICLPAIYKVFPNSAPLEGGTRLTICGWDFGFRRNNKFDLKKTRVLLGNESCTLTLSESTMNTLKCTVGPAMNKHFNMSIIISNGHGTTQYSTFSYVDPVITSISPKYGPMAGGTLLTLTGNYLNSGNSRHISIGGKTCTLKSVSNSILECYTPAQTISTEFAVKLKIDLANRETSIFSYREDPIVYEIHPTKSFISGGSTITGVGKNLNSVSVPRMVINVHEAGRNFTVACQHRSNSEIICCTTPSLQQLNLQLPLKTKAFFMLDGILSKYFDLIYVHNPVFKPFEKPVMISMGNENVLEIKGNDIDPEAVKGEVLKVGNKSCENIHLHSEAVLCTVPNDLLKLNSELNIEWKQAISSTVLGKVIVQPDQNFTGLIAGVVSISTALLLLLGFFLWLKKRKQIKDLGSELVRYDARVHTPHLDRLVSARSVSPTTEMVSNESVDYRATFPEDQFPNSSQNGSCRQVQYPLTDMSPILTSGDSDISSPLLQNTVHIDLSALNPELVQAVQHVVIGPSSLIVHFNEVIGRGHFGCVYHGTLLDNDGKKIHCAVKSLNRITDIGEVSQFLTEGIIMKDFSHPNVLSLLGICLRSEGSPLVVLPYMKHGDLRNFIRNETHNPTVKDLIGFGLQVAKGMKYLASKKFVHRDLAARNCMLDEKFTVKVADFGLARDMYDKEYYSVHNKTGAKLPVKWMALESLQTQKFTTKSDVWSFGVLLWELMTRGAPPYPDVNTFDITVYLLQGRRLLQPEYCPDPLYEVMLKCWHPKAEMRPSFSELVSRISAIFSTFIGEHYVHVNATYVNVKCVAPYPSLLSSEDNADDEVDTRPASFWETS

For `CCOc1cn(Cc2cnccc2C)nc1C(=O)Nc1ccc(Oc2ccnc3cc(OC)c(OC)cc23)cc1F` [Compound 226], the equilibrium dissociation constant (Kd) on Mer and at Met was below 100 nM throughout. Moreover, the 50% inhibitory concentration (IC50) (in general, the concentration at which inhibition is half-maximal) in test [1] is below 100 nM.

For `CCOc1cn(-c2cnccc2CCCN(C)C)nc1C(=O)Nc1ccc(Oc2ccnc3cc(OC)c(OC)cc23)cn1` [Compound 61], the Kd at Mer and at Met was below 100 nM throughout. Further, the IC50 in test [1] is below 100 nM.

As to `CCOc1cn(-c2cnccc2CO)nc1C(=O)Nc1ccc(Oc2ccnc3cc(OC)c(OC(F)(F)F)cc23)cn1` [Compound 233], the Kd (in general, a measure of binding affinity in units of concentration) was below 100 nM at Mer and at least 1000 nM on Met. The concentration for half-maximal inhibition (IC50) in test [1] was below 100 nM.

On to `CCOc1cn(-c2cc[nH]c2)nc1C(=O)Nc1ccc(Oc2ccnc3cc(OC)c(OC)cc23)cn1` [Compound 32], for which the equilibrium dissociation constant (Kd) on Mer was below 100 nM; on Met, 100 to 1000 nM. Moreover, the IC50 in test [1] was below 100 nM.

In the case of `COc1cc2nccc(Oc3ccc(NC(=O)c4nn(-c5ccc(F)cc5C(C)=O)cc4OCC4CC4)nc3)c2cc1OC` [Compound 273], the results for the Kd at Mer and on Met were below 100 nM and 100 to 1000 nM, respectively. The concentration for half-maximal inhibition (IC50) in test [1] was below 100 nM.

Regarding `COc1cc2nccc(Oc3ccc(NC(=O)c4nn(-c5ccc(F)cc5Oc5ccccc5)cc4OCC4CC4)nc3)c2cc1OC` [Compound 272], the Kd at Mer is below 100 nM; at Met it was 100 to 1000 nM. The same compound registered an IC50 in test [1] below 100 nM.

For the compound `COc1cc2nccc(Oc3ccc(NC(=O)c4nn(-c5ccc(F)cc5N5CCOCC5)cc4OCC4CC4)nc3)c2cc1OC` [Compound 266], the dissociation constant (Kd) at Mer and on Met was below 100 nM in each case. The IC50 in test [1] is below 100 nM.

Consider `COc1cc2nccc(Oc3ccc(NC(=O)c4nn(-c5cnc(N)nc5)cc4OCC4COC4)nc3)c2cc1OC` [Compound 269], for which the dissociation constant Kd at Mer is below 100 nM; on Met it was 100 to 1000 nM. In test [1], the IC50 is below 100 nM.

Turning to `CCOc1cn(CCOC(F)(F)F)nc1C(=O)Nc1ccc(Oc2ccnc3cc(OC)c(OC)cc23)cn1` [Compound 38], the Kd at Mer and on Met was below 100 nM throughout. Moreover, the half-maximal inhibitory concentration (IC50) in test [1] is below 100 nM.

In the case of `CCOc1cn(C2CCCN(C(C)=O)C2)nc1C(=O)Nc1ccc(Oc2ccnc3cc(OC)c(OC)cc23)cc1F` (stereo not drawn) [Compound 224], the results for the Kd at Mer and on Met were below 100 nM and 100 to 1000 nM, respectively. The compound also yielded an IC50 in test [1] below 100 nM.

For the compound `CCOc1cn(-c2ccco2)nc1C(=O)Nc1ccc(Oc2ccnc3cc(OC)c(OC)cc23)cn1` [Compound 57], the Kd on Mer and on Met was below 100 nM in each case. The IC50 in test [1] is below 100 nM.

With `COc1cc2c(Oc3ccc(NC(=O)c4nn(-c5cnc(N)nc5)cc4OCC(F)(F)F)c(F)c3)ccnc2cc1OC(C)C` [Compound 243], the Kd on Mer and on Met was below 100 nM throughout. This compound registered an IC50 in test [1] below 100 nM.

`COc1cc2nccc(Oc3ccc(NC(=O)c4nn(-c5ccc(F)cc5F)cc4OCC4CC4)nc3)c2cc1OC` [Compound 267]: the dissociation constant (Kd) on Mer and on Met was below 100 nM each time. Further, the IC50 in test [1] was below 100 nM.

On to `COc1cc2nccc(Oc3ccc(NC(=O)c4nn(-c5cnc(N)nc5)cc4OCC(F)(F)F)c(F)c3)c2cc1OC` [Compound 259], for which the Kd on Mer and at Met was below 100 nM each time. Also, the IC50 in test [1] is below 100 nM.

`COc1cc2nccc(Oc3ccc(NC(=O)c4nn(-c5ccc(OC(F)(F)F)cc5Cl)cc4OCC4CC4)nc3)c2cc1OC` [Compound 244]: the Kd at Mer and on Met was below 100 nM each time. The IC50 in test [1] is below 100 nM.

`COc1cc2nccc(Oc3ccc(NC(=O)c4nn(-c5cnc(Cl)cn5)cc4OCC(F)(F)F)nc3)c2cc1OC` [Compound 236]: the Kd at Mer and at Met was below 100 nM in each case. In test [1], this compound had a 50% inhibitory concentration (IC50) below 100 nM.

`CCOc1cn(-c2cnc(N)nc2)nc1C(=O)Nc1ccc(Oc2ccnc3cc(OC)c(OC(F)(F)F)cc23)cc1F` [Compound 242]: the Kd on Mer and at Met was at least 1000 nM each time. Further, the IC50 in test [1] was 100 to 1000 nM.

Consider `CCOc1cnn(-c2ccsc2)c1C(=O)Nc1ccc(Oc2ccnc3cc(OC)c(OC)cc23)cn1` [Compound 21], for which the Kd at Mer and on Met was 100 to 1000 nM each time. The compound also yielded a half-inhibitory concentration (IC50) in test [1] below 100 nM.

On to `CCOc1cn(-c2cnccc2CO)nc1C(=O)Nc1ccc(Oc2ccnc3cc(OC(C)C)c(OC)cc23)cc1F` [Compound 231], for which the results for the Kd on Mer and at Met were below 100 nM and 100 to 1000 nM, respectively. The IC50 in test [1] is below 100 nM.

On to `CCOc1cn(C(C)(C)C(=O)NC)nc1C(=O)Nc1ccc(Oc2ccnc3cc(OC)c(OC)cc23)cn1` [Compound 68], for which the Kd is below 100 nM at Mer and 100 to 1000 nM on Met. The compound also gave an IC50 in test [1] below 100 nM.

Regarding `CCOc1cn(-c2ccncc2Cl)nc1C(=O)Nc1ccc(Oc2ccnc3cc(OC)c(OC)cc23)cn1` [Compound 26], the Kd at Mer and at Met was below 100 nM throughout. The compound also gave an IC50 in test [1] below 100 nM.

Turning to `CCOc1cn(-c2cnccc2CN(C)C)nc1C(=O)Nc1ccc(Oc2ccnc3cc(OC)c(OC)cc23)cn1` [Compound 73], the Kd at Mer is below 100 nM; on Met, 100 to 1000 nM. In addition, in test [1], the half-maximal inhibitory concentration (IC50) is below 100 nM.

Consider `COc1cc2nccc(Oc3ccc(NC(=O)c4nn(-c5cnc(N)nc5)cc4OC(F)F)nc3)c2cc1OC` [Compound 254], for which the Kd on Mer was below 100 nM; at Met, at least 1000 nM. In addition, the 50% inhibitory concentration (IC50) in test [1] is below 100 nM.

As for `CCOc1cn(C2CCCN(C(N)=O)C2)nc1C(=O)Nc1ccc(Oc2ccnc3cc(OC)c(OC)cc23)cc1F` (stereo not drawn) [Compound 225], the Kd on Mer was below 100 nM; at Met, 100 to 1000 nM. The compound further gave a half-inhibitory concentration (IC50) in test [1] of 100 to 1000 nM.

For the compound `COc1cc2nccc(Oc3ccc(NC(=O)c4nn(-c5cnc(N)nc5)cc4OCC(F)(F)F)nc3)c2cc1OC` [Compound 237], the Kd at Mer and on Met was below 100 nM in each case. Moreover, in test [1], the IC50 is below 100 nM.

With `COc1cc2nccc(Oc3ccc(NC(=O)c4nn(-c5cnc(N)nc5)cc4OCC4CNC4)nc3)c2cc1OC` [Compound 265], the Kd at Mer and at Met was at least 1000 nM in each case. The IC50 in test [1] was at least 1000 nM.

With `CCOc1cnn(-c2cccs2)c1C(=O)Nc1ccc(Oc2ccnc3cc(OC)c(OC)cc23)cn1` [Compound 20], the equilibrium dissociation constant (Kd) at Mer and on Met was 100 to 1000 nM throughout. The compound also gave an IC50 in test [1] below 100 nM.

For the compound `CCOc1cn(CC2CCO2)nc1C(=O)Nc1ccc(Oc2ccnc3cc(OC)c(OC)cc23)cn1` (stereo not drawn) [Compound 48], the dissociation constant Kd at Mer was below 100 nM; at Met, 100 to 1000 nM. This compound returned a half-inhibitory concentration (IC50) in test [1] below 100 nM.

On to `CCOc1cn(-c2cnc(C#N)nc2)nc1C(=O)Nc1ccc(Oc2ccnc3cc(OC)c(OC)cc23)cn1` [Compound 55], for which the Kd on Mer and on Met was 100 to 1000 nM throughout. Further, the IC50 in test [1] is below 100 nM.

Regarding `CCOc1cn(-c2ccoc2)nc1C(=O)Nc1ccc(Oc2ccnc3cc(OC)c(OC)cc23)cn1` [Compound 33], the Kd at Mer and at Met was below 100 nM throughout. The half-maximal inhibitory concentration (IC50) in test [1] was below 100 nM.

For the compound `COc1cc2c(Oc3ccc(NC(=O)c4nn(-c5cnc(N)cn5)cc4OCC(F)(F)F)c(F)c3)ccnc2cc1OC(C)C` [Compound 246], the Kd is below 100 nM on Mer and at least 1000 nM at Met. Besides, the IC50 in test [1] is below 100 nM.

For `COc1cc2c(Oc3ccc(NC(=O)c4nn(-c5cnc(N)cn5)cc4OCC(F)(F)F)nc3)ccnc2cc1OC(C)C` [Compound 253], the Kd at Mer and on Met was below 100 nM throughout. The compound further registered a half-inhibitory concentration (IC50) in test [1] below 100 nM.

Turning to `CCOc1cn(-c2cccnc2Cl)nc1C(=O)Nc1ccc(Oc2ccnc3cc(OC)c(OC)cc23)cn1` [Compound 19], the dissociation constant Kd on Mer and on Met was below 100 nM throughout. The compound also had an IC50 in test [1] below 100 nM.

In the case of `COc1cc2nccc(Oc3ccc(NC(=O)c4nn(-c5ccc(F)cc5OC)cc4OCC4CC4)nc3)c2cc1OC` [Compound 264], the Kd on Mer and on Met was below 100 nM in each case. The same compound yielded a 50% inhibitory concentration (IC50) in test [1] below 100 nM.

As to `CCOc1cn(-c2ccn(C)c2)nc1C(=O)Nc1ccc(Oc2ccnc3cc(OC)c(OC)cc23)cn1` [Compound 56], the Kd on Mer and at Met was below 100 nM each time. This compound also showed an IC50 in test [1] below 100 nM.
